What was measured:
HTTexon1-Q72-MBP = biological target: T1, HTTexon1-Q72-MBP (Homo sapiens, UniProt P42858, INS38QQQQQQQQQQQQQQQQQQQQQQQQQQQQQQQQQQQQQQQQQQQQQQQQQQQ); assay: OI-RD affinity screening and affinity reaction parameters with HTTexon1-Q72; format: binding
T1 construct: made in house; host or cells: mammalian expression vector pTT5SH8Q2
Experimental: Each compound was printed in duplicate on the microarray. The compound not fixed on the surface of the chip was washed away. The chip was sealed and cleaned. 01-RD microscope was applied to scan the images. […] The chips are cleaned and scanned.
(§1) The difference images of the above steps (1), (2), (3) (the image after incubation minus the image before incubation) was analyzed respectively.
(§2) Each compound was printed in triplicates on the microarray. 01-RD was used to measure the affinity reaction parameters of compounds with HTTexon1-Q72 and HTTexon1-Q25.

HTTexon1-Q25-MBP = biological target: T2, HTTexon1-Q25-MBP (Homo sapiens, UniProt P42858, DUP35-38); assay: OI-RD affinity with HTTexon1-Q25; format: binding
T2 construct: made in house; host or cells: mammalian expression vector pTT5SH8Q2
Experimental: OI-RD images before and after incubation with the target protein was obtained following the method in (1).
as §1, §2

LC3B [1] = biological target: T3, LC3B (Homo sapiens, UniProt Q9GZQ8); assay: OI-RD affinity with LC3B; format: binding
T3 construct: His8 (N, cleaved yes); GST (from pGEX-6P1) (N, cleaved yes); made in house; host or cells: E. coli BL21(DE3)pLsyS
Experimental: 01-RD images before and after incubation with the target protein was obtained following the method in (1).
as §1
(§3) Each compound was printed in triplicates on the microarray. 01-RD was used to measure the affinity reaction parameters of the compound with LC3B, full-length mHTT (flHTT-Q73) and full-length HTT-Q23 (flHTT-Q23).

[2] = biological target: T4, full-length mHTT (flHTT-Q73) (Homo sapiens, UniProt P42858, INS38QQQQQQQQQQQQQQQQQQQQQQQQQQQQQQQQQQQQQQQQQQQQQQQQQQQQ); assay: OI-RD affinity reaction parameters with flHTT-Q73; format: binding
T4 construct: LC3B, full-length mHTT (flHTT-Q73) and full-length HTT-Q23 (flHTT-Q23); protein A (N, cleaved yes); made in house; host or cells: human embryonic kidney E293 cells
Source text: as §3

flHTT-Q73 = biological target: T5, flHTT-Q73 (Homo sapiens, UniProt P42858, INS38QQQQQQQQQQQQQQQQQQQQQQQQQQQQQQQQQQQQQQQQQQQQQQQQQQQQ); assay: MST affinity with flHTT-Q73; format: binding
T5 construct: LC3B, full-length mHTT (flHTT-Q73) and full-length HTT-Q23 (flHTT-Q23); protein A (N, cleaved yes); made in house; host or cells: human embryonic kidney E293 cells

LC3B [3] = biological target: T3, LC3B; assay: MST affinity with LC3B; format: binding
mHTT [4] = assay: Western-blot mHTT level in primary cultured cortical neurons; format: cell-based, mouse; conditions: 2 days
Experimental: (§4) Primary cultured cortical neurons: The brains of Hdh^Q140/Q7 and Hdh^Q7/Q7 newborn mice (P0) were dissected, digested, dissociated, and cultured.
(§5) (1) The primary cultured Hdh^Q140/Q7 and Hdh^Q7/Q7 mouse cortical neuron cells were treated with the compound for 2 days.

wtHTT = biological target: T6, wtHTT (Mus musculus, UniProt P42859); assay: Western-blot wtHTT level in primary cultured cortical neurons; format: cell-based; conditions: Hdh^Q7/Q7 cortical neurons, 2 days
T6 construct: endogenous in cells; host or cells: primary cortical neurons of newborn Hdh Q140/Q7 and Hdh Q7/Q7 mice
Experimental: as §4, §5

mHTT [5] = biological target: T7, mHTT (Homo sapiens, UniProt P42858, INS38QQQQQQQQQQQQQQQQQQQQQQQQQQ); assay: HTRF mHTT level in HD patient iPSC-derived neurons; format: cell-based; conditions: iPSC-derived neurons (Q47)
T7 construct: endogenous in cells; host or cells: HD patient iPSC-derived neurons (Q47)

[6] = biological target: T8, mutant ATXN3 protein (ATXN3-Q74) (Homo sapiens, UniProt P54252, G306R/INS305QQQQQQQQQQQQQQQQQQQQQQQQQQQQQQQQQQQQQQQQQQQQQQQQQQQQQQQQQQQQQQQQ/V212M); assay: Western-blot mutant ATXN3 level in SCA3 patient fibroblasts; format: cell-based; conditions: 100 nM (compound 4: 50 nM), 2 days
T8 construct: endogenous in cells; host or cells: SCA3 patient fibroblasts (Q74)
Experimental: (§6) Then the levels of mutant ATXN3 protein (ATXN3-Q74, SEQ ID NO: 2) and wild-type ATXN3 protein (ATXN3-Q27, SEQ ID NO: 7) were determined by Western-blots (FIG. 26). […] Therefore, the compound of the present invention can be used to treat SCA3.

[7] = biological target: T9, wild-type ATXN3 protein (ATXN3-Q27) (Homo sapiens, UniProt P54252, G306R/INS305QQQQQQQQQQQQQQQQQ/V212M); assay: Western-blot wild-type ATXN3 level in fibroblasts; format: cell-based; conditions: 100 nM (compound 4: 50 nM), 2 days
T9 construct: endogenous in cells; host or cells: wild-type fibroblasts (Q27) and/or the normal allele in SCA3 patient fibroblasts
Experimental: as §6

His-ATXN1-Q92 = biological target: T10, His-ATXN1-Q92 (Homo sapiens, UniProt P54253, INS208QQQQQQQQQQQQQQQQQQQQQQQQQQQQQQQQQQQQQQQQQQQQQQQQQQQQQQQQQQQQQQQQQQQQQQQQQQQQQQQQ); assay: OI-RD affinity screening with His-ATXN1-Q92; format: binding; conditions: OI-RD difference images
T10 construct: made in house; host or cells: HEK293T cells (ATCC, CRL-3216)
Experimental: (1) PolyQ-ATXN1 cDNA (where polyQ is Q92) was synthesized de novo and subcloned into pcDNA vector. It transfected into HEK293T cells (ATCC, CRL-3216) to obtain cells expressing His-ATXN1-Q92 (SEQ ID NO: 3 with a His tag at the N-terminal).
(2) The His-ATXN1-Q92 expressed in (1) was purified to obtain ATXN1 with abnormally expanded polyQ.
To identify compound(s) that can bind to ATXN1 with abnormally expanded polyQ, screening was conducted using a method similar to step (1) of 1.1, except for that the target protein HTTexon1-Q72-MBP in step (1) of 1.1 was replaced with His-ATXN1-Q92.

[8] = biological target: T11, mutant ATXN1 protein (His-ATXN1-Q92) (Homo sapiens, UniProt P54253, INS208QQQQQQQQQQQQQQQQQQQQQQQQQQQQQQQQQQQQQQQQQQQQQQQQQQQQQQQQQQQQQQQQQQQQQQQQQQQQQQQQ); assay: HTRF mutant ATXN1 level in His-ATXN1-Q92-expressing cells; format: cell-based; conditions: 100 nM, 2 days, anti-His-Tb/MW1-D2
T11 construct: expressed in transfected cells; host or cells: HEK293T cells (ATCC, CRL-3216)

mHTT [9] = assay: Intracerebroventricular injection, mHTT and wtHTT in cortices of HD mice; format: in vivo, mouse; conditions: mouse, in vivo
Experimental: Experimental animals: Hdh^Q140/Q7 mice (3 months old), 4 in each group.
Each test includes three repetitions for each sample, and the mean values was calculated (FIG. 16).

Q25-GFP [10] = assay: OI-RD affinity screening with Q25-GFP; format: binding; conditions: OI-RD difference images
Source text: (1) PolyQ-GFP cDNA sequence (expressing Met-polyQ-GFP, wherein polyQ was Q72 or Q25) was synthesized de novo and subcloned into pcDNA vector. […] And the same method was used to obtain cells expressing Q53-GFP, cells expressing Q46-GFP, and cells expressing Q38-GFP.

GFP = assay: OI-RD affinity screening with GFP; format: binding; conditions: OI-RD difference images
Experimental: (§7) To identify compound(s) that can selectively bind to proteins containing expanded polyglutamine, screening was conducted using a method similar to 1.1, except for that the target protein HTTexon1-Q72-MBP in step (1) of 1.1 was replaced with the polyQ-GFP protein prepared in 10.1, and the target protein HTTexon1-Q25-MBP in step (2) of 1.1 was replaced with GFP.

[11] = tested on: proteins with expanded polyglutamine (polyQ-GFP); assay: OI-RD affinity screening with polyQ-GFP proteins; format: binding; conditions: OI-RD difference images
Experimental: as §7

[12] = tested on: polyQ-GFP (Q72-GFP, Q25-GFP); assay: polyQ-GFP level in HEK293T cells by Incucyte fluorescence counting; format: cell-based; conditions: Q72-GFP vs Q25-GFP expressing HEK293T cells, 100 nM compound 1, 100 nM compound 3 or 50 nM compound 4, 2 days
Source text: (1) PolyQ-GFP cDNA sequence (expressing Met-polyQ-GFP, wherein polyQ was Q72 or Q25) was synthesized de novo and subcloned into pcDNA vector. It was transfected into HEK293T cells (ATCC, CRL-3216) through forward transfection to obtain Q72-GFP expressing cells and Q25-GFP expressing cells, respectively. And the same method was used to obtain cells expressing Q53-GFP, cells expressing Q46-GFP, and cells expressing Q38-GFP.
The Q72-GFP expressing cells and Q25-GFP expressing cells obtained in step (1) of 10.1 were used. […] Then the level of polyQ-GFP was measured by Incucyte fluorescence counting (FIG. 25).

MBP-ATXN3-Q28 [13] = biological target: T12, MBP-ATXN3-Q28 (Homo sapiens, UniProt P54252, INS305QQQQQQQQQQQQQQQQQQ); assay: OI-RD affinity screening with MBP-ATXN3-Q28; format: binding; conditions: OI-RD difference images
T12 construct: His8 with TEV protease cleavage site; made in house; host or cells: Escherichia coli Rosetta(DE3)pLsyS
Experimental: (§8) Screening was conducted using a method similar to 1.1, except for that the target protein HTTexon1-Q72-MBP in step (1) of 1.1 was replaced with MBP-ATXN3-Q68 and the target protein HTTexon1-Q25-MBP in step (2) of 1.1 was replaced with MBP-ATXN3-Q28, to obtain compounds that can selectively bind to ATXN3 with abnormally expanded polyQ (MBP-ATXN3-Q68).

MBP-ATXN3-Q28 [14] = biological target: T12, MBP-ATXN3-Q28; assay: MST affinity with MBP-ATXN3-Q28; format: binding
Experimental: Protein concentration was 500 nM.

Q25-GFP [15] = assay: MST affinity with Q25-GFP
Experimental: (§9) The affinity of the compound with full-length HTT and LC3B was verified with micro thermophoresis (MST) using Monolith NT.115 instrument from NanoTemper Technologies. The reaction buffer was 20 mM HEPES, pH 7.4, 150 mM NaCl.

MBP-ATXN3-Q68 [16] = biological target: T13, MBP-ATXN3-Q68 (Homo sapiens, UniProt P54252, INS305QQQQQQQQQQQQQQQQQQQQQQQQQQQQQQQQQQQQQQQQQQQQQQQQQQQQQQQQQQ); assay: MST affinity with MBP-ATXN3-Q68
Experimental: as §9

MBP-ATXN3-Q68 [17] = biological target: T13, MBP-ATXN3-Q68; assay: OI-RD affinity screening with MBP-ATXN3-Q68; format: binding; parameters: His8 with TEV protease cleavage site; made in house; host or cells: Escherichia coli Rosetta(DE3)pLsyS; conditions: OI-RD difference images
Experimental: as §8

T1 sequence (P42858 with tags, fused parts or gaps, stated change not applied): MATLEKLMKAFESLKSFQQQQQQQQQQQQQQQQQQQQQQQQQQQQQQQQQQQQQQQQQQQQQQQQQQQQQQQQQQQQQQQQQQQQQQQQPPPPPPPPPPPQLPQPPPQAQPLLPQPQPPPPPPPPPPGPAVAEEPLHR
T4 sequence (P42858 with tags, fused parts or gaps with the stated changes): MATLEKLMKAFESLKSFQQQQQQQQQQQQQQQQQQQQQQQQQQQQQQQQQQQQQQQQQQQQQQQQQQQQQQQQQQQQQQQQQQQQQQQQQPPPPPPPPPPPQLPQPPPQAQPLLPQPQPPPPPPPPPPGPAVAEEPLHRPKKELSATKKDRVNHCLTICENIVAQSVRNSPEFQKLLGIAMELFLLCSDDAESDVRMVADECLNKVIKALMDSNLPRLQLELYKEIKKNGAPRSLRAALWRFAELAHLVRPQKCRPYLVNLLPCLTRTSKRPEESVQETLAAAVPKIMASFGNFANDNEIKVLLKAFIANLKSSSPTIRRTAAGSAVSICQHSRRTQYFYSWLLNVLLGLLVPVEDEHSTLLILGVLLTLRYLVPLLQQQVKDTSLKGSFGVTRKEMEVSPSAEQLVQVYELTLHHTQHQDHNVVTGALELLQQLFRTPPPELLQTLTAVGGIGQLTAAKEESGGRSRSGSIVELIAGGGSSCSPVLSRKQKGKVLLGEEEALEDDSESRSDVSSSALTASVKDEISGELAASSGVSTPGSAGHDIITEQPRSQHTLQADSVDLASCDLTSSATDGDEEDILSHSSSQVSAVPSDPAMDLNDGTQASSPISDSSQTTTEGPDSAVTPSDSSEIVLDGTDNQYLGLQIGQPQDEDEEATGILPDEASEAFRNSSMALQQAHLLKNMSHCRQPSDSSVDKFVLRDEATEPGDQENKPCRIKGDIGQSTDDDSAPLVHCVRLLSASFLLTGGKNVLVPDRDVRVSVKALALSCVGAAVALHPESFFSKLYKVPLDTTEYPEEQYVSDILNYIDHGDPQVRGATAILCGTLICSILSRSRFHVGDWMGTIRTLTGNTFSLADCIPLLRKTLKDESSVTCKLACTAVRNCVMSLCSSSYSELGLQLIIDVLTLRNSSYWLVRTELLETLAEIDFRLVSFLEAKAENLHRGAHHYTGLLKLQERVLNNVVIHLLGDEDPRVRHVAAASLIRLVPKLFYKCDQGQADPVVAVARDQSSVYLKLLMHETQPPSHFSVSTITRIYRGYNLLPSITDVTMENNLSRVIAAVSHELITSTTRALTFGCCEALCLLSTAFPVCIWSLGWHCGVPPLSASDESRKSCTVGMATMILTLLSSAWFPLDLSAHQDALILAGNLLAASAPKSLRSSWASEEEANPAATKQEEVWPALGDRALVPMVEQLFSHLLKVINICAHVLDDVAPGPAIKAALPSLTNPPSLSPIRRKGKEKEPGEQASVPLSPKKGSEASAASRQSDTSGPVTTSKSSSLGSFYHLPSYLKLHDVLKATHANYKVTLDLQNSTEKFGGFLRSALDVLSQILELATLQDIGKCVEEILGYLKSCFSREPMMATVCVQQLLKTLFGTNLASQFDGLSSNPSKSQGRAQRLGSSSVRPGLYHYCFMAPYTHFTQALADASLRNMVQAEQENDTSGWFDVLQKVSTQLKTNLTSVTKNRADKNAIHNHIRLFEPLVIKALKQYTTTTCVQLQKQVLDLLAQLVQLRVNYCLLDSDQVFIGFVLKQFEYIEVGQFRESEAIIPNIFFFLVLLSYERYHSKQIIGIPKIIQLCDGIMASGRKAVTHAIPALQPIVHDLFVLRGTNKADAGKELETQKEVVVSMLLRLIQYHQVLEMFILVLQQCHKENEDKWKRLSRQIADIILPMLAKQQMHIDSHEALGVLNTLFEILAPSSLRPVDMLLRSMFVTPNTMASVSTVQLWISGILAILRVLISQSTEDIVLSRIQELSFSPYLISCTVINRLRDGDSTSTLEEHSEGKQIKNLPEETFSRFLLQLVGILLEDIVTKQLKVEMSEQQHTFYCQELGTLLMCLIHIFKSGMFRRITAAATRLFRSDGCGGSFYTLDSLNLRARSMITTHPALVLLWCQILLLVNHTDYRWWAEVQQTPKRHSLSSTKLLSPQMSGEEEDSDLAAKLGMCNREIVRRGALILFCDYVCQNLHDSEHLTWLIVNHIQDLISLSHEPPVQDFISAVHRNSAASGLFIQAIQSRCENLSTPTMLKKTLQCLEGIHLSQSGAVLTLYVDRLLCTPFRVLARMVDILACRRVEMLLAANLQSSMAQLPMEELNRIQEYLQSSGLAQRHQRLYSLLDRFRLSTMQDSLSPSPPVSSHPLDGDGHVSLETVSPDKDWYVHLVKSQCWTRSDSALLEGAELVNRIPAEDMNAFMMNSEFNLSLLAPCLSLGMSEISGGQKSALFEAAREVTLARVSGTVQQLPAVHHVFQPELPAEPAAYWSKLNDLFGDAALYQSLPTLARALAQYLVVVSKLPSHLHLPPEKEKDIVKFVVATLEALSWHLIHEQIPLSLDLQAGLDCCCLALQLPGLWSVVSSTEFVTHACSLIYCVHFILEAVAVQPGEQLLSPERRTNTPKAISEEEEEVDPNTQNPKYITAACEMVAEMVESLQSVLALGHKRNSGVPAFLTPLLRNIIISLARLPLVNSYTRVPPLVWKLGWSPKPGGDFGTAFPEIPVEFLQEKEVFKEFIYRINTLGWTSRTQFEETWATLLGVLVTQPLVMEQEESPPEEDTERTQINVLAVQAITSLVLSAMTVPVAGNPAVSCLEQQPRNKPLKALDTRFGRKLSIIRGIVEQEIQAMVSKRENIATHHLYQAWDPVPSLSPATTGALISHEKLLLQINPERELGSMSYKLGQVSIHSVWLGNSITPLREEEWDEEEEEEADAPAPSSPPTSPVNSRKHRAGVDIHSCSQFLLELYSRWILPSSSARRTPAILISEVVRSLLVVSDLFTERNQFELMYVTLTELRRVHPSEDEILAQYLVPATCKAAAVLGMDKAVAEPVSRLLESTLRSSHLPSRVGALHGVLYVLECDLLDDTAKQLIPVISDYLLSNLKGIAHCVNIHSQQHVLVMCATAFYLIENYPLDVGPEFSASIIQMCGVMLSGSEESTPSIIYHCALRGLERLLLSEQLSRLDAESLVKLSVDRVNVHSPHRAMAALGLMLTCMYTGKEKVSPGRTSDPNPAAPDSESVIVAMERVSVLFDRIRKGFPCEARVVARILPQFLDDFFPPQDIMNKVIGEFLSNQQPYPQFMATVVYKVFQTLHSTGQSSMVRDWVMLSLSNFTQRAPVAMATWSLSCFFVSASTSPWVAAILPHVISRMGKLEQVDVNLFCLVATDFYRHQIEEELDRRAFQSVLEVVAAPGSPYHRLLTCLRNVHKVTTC
T10 sequence (P54253 with tags, fused parts or gaps with the stated changes): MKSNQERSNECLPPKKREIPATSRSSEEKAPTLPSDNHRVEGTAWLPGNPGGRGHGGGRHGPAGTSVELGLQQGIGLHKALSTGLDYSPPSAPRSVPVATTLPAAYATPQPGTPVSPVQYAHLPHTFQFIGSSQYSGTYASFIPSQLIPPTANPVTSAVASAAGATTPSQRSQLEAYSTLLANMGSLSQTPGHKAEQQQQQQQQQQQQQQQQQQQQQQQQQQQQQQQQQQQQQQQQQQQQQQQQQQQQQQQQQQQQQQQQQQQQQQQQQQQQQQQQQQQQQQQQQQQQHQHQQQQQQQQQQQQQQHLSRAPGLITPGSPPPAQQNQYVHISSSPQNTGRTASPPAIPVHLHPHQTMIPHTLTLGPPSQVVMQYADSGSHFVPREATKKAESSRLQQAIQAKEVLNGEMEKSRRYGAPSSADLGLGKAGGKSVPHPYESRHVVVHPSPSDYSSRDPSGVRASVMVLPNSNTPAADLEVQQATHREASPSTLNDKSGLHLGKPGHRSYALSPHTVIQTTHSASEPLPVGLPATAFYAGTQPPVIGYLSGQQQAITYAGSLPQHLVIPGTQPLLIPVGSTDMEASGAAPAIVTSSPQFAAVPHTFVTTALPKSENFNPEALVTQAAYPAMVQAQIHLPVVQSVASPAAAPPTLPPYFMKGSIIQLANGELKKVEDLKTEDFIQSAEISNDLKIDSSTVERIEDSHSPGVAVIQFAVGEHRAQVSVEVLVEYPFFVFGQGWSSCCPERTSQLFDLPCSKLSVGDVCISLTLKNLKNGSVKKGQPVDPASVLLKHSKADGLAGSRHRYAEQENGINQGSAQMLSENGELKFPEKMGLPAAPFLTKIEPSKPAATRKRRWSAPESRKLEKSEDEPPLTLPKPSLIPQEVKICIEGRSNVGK
T11 sequence (P54253 with tags, fused parts or gaps with the stated changes): as above
T13 sequence (P54252 with tags, fused parts or gaps isoform P54252-4 with the stated changes): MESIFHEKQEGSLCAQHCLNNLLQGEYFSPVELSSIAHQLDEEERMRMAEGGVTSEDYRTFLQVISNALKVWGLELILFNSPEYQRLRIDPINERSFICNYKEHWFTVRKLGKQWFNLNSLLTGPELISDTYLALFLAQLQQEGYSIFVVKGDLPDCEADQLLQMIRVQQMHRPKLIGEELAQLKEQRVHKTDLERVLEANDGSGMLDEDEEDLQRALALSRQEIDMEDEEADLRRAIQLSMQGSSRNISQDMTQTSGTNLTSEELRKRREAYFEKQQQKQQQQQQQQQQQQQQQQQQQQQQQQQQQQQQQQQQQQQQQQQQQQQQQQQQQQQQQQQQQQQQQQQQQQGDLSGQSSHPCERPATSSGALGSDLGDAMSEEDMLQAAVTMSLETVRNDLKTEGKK
T9 sequence (P54252 with tags, fused parts or gaps isoform P54252-1 with the stated changes): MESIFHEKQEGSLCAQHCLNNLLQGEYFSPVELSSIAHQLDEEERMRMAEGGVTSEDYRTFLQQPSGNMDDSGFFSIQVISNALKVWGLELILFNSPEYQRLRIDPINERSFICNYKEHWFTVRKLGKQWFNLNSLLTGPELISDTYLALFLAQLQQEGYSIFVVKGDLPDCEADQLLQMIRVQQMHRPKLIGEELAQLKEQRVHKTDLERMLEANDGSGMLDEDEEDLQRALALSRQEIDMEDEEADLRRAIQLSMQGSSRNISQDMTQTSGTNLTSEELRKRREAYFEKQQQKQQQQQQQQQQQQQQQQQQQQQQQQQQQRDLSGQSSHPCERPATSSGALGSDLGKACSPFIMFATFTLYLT
T5 sequence (P42858 with tags, fused parts or gaps with the stated changes): as the sequence (P42858 with tags, fused parts or gaps with the stated changes) above

Compound: Cc1ccc(C(=O)N(CCCN)[C@@H](c2nc3cc(Cl)ccc3c(=O)n2Cc2ccccc2)C(C)C)cc1 [compound 2, ispinesib]
- Kd (HTTexon1-Q72-MBP): 29.2 nM
- binding to HTTexon1-Q72 (HTTexon1-Q72-MBP; OI-RD difference images): can bind
- Koff (HTTexon1-Q72-MBP; OI-RD, HTTexon1-Q72): 0.000104 s⁻¹
- Kon (HTTexon1-Q72-MBP; OI-RD, HTTexon1-Q72): 0.000213 min/nM
- binding to HTTexon1-Q25 (HTTexon1-Q25-MBP): do not bind
- Kd (LC3B [1]): 238 nM
- binding to LC3B (LC3B [1]; OI-RD difference images): can bind
- Koff (LC3B [1]; OI-RD, LC3B): 9.77e-05 s⁻¹
- Kon (LC3B [1]; OI-RD, LC3B): 2.46e-05 min/nM
- Kd [2]: 322 nM
- Koff ([2]; OI-RD, flHTT-Q73): 0.000345 s⁻¹
- Kon ([2]; OI-RD, flHTT-Q73): 6.43e-05 min/nM
- Kd (flHTT-Q73): 130 nM
- Kd (LC3B [3]): 3100 nM
- concentration range in which the effect of selectively reducing mHTT levels was observed (mHTT [4]): 30 to 100 nM
- preferred concentration for selectively reducing mHTT levels (mHTT [4]): 100 nM
- wtHTT levels (wtHTT): did not reduce wtHTT levels
- mHTT levels (mHTT [5]; 2B7/MW1): Decreased mHTT levels were observed
- mHTT levels (mHTT [5]; presence of the autophagy inhibitor NH4Cl): this effect was not observed
- mutant ATXN3 protein level [6]: A decrease in mutant ATXN3 protein level was observed
- wild-type ATXN3 protein level [7]: no decrease in wild-type ATXN3 protein level was observed
- binding to His-ATXN1-Q92 (His-ATXN1-Q92): can bind
- level of mutant ATXN1 protein (His-ATXN1-Q92) [8]: Decreased levels of mutant ATXN1 were observed

Compound: O=C1Nc2ccc(Br)cc2/C1=C/c1cc(O)c(O)c(Br)c1 [compound 3]
- mHTT level in cortices (mHTT [9]): significantly reduced mHTT level
- binding to Q25-GFP (Q25-GFP [10]): did not bind
- binding to GFP (GFP): did not bind
- binding affinity to proteins with 38 or more glutamine repeats [11]: showed certain binding affinity
- level of proteins containing expanded polyglutamine in cells (polyQ-GFP) [12]: can selectively reduce the level
- binding to MBP-ATXN3-Q28 (MBP-ATXN3-Q28 [13]): did not bind
- binding affinity with normal ATXN3 protein (MBP-ATXN3-Q28) (MBP-ATXN3-Q28 [14]): no binding affinity
- mutant ATXN3 protein level [6]: A decrease in mutant ATXN3 protein level was observed
- wild-type ATXN3 protein level [7]: no decrease in wild-type ATXN3 protein level was observed
- binding to His-ATXN1-Q92 (His-ATXN1-Q92): can bind
- level of mutant ATXN1 protein (His-ATXN1-Q92) [8]: Decreased levels of mutant ATXN1 were observed
- binding affinity to Q25-GFP (Q25-GFP [15]): no binding affinity
- Kd (MBP-ATXN3-Q68 [16]): 1020 nM
- binding to MBP-ATXN3-Q68 (MBP-ATXN3-Q68 [17]): binded

From patent US20220170930A1, “METHOD FOR SCREENING COMPOUND FOR TREATING OR PREVENTING POLYQ-RELATED NEURODEGENERATIVE DISEASES” (FUDAN UNIVERSITY, priority 2019, published 2022)
